The experiment addresses T1, EGFR TMLRCS (Homo sapiens, UniProt P00533, C797S/L858R/T790M).
T1 construct: host or cells: BaF3-TMLRCS (Ba/F3 cells, kept under puromycin selection)
Nature of the experiment: HTRF Phospho EGFR TMLRCS Assay (Cellular). The experiment is classed as cell-based. The conditions noted are these: BaF3-TMLRCS cell line, 4 hours incubation, Phospho-EGFR HTRF readout. The procedure, abridged: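 BaF3 cells expressing EGFR L858R/T790M/C797S, 20000/well, treated with compound in dose response for 4 h at 37 °C, 5% CO2. After lysis, phospho-EGFR detected by HTRF with cryptate and d2 antibodies over 4 h at room temperature. Signal taken as 665/616 nm ratio ×10000, normalized.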

T1 sequence (P00533 25-1210 T790M/C797S/L858R): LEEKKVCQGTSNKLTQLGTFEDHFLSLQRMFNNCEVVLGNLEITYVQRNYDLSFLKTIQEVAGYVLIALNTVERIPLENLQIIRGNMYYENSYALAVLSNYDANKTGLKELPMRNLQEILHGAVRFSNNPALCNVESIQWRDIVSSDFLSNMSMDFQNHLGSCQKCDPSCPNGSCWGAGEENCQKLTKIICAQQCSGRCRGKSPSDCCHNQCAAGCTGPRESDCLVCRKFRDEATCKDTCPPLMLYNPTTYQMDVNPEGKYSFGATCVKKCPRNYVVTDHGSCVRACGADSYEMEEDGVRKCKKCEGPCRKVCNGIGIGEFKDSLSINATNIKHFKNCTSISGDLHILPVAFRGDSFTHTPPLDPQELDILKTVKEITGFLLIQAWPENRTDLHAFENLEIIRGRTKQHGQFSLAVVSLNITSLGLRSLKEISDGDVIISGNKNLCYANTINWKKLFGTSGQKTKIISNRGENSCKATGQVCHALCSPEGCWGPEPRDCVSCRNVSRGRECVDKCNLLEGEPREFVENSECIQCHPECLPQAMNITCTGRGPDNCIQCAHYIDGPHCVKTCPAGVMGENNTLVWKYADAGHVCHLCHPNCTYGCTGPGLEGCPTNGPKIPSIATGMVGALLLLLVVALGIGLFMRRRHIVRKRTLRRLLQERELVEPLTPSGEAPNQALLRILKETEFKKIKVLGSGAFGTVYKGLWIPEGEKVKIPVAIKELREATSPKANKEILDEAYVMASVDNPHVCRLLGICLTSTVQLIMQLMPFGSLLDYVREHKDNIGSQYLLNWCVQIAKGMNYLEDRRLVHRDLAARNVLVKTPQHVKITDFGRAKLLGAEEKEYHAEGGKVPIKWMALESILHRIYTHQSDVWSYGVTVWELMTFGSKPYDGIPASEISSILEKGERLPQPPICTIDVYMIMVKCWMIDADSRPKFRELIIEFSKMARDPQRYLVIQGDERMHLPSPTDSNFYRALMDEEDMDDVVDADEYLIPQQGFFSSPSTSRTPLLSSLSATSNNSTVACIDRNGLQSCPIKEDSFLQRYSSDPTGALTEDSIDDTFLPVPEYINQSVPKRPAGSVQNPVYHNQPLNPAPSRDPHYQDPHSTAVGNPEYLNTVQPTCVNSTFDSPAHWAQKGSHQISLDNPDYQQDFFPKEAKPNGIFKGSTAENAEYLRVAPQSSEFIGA

Turning to `O=C(Nc1nccs1)C(c1ncn2c1CCC2)n1cc2c(Cl)cc(-c3ccc(C4CCN(CCF)CC4)cc3)c(Cl)c2n1` (centres unmarked) [Example 103, 2-(4,7-Dichloro-6-(4-(1-(2-fluoroethyl)piperidin-4-yl)phenyl)-2H-indazol-2-yl)-2-(6,7-dihydro-5H-pyrrolo[1,2-c]imidazol-1-yl)-N-(thiazol-2-yl)acetamide], it took 20 nM to reach half-maximal inhibition (IC50).
In turn, `CCN1CCC(c2ccc(-c3cc(Cl)c4cn(C(C(=O)Nc5nccs5)c5ncn6c5CCC6)nc4c3Cl)cc2)CC1` (centres unmarked) [Example 104, 2-(4,7-Dichloro-6-(4-(1-ethylpiperidin-4-yl)phenyl)-2H-indazol-2-yl)-2-(6,7-dihydro-5H-pyrrolo[1,2-c]imidazol-1-yl)-N-(thiazol-2-yl)acetamide] had a 50% inhibitory concentration (IC50) of 12 nM. Compared with the last molecule, the IC50 is about 1.7-fold lower.
`Cc1c(-c2ccc(N3CCOCC3)cc2)cc(Cl)c2cn(C(C(=O)Nc3nccs3)c3ncn4c3C[C@@H](F)C4)nc12` (stereo partly drawn) [Example 105, 2-(4-Chloro-7-methyl-6-(4-morpholinophenyl)-2H-indazol-2-yl)-2-((R)-6-fluoro-6,7-dihydro-5H-pyrrolo[1,2-c]imidazol-1-yl)-N-(thiazol-2-yl)acetamide] registered an IC50 of 8 nM.
In the case of `Cc1cc(-c2ccc(N3CCOCC3)cc2)c(C)c2nn(C(C(=O)Nc3nccs3)c3ncn4c3C[C@@H](F)C4)cc12` (stereo partly drawn) [Example 118, 2-(4,7-Dimethyl-6-(4-morpholinophenyl)-2H-indazol-2-yl)-2-((R)-6-fluoro-6,7-dihydro-5H-pyrrolo[1,2-c]imidazol-1-yl)-N-(thiazol-2-yl)acetamide], half-maximal inhibition (IC50) was put at 7 nM.
The molecule `CCN1CCC(c2ccc(-c3cc(C)c4cn(C(C(=O)Nc5nccs5)c5ncn6c5C[C@@H](F)C6)nc4c3C)cc2)CC1` (stereo partly drawn) [Example 120, 2-(6-(4-(1-Ethylpiperidin-4-yl)phenyl)-4,7-dimethyl-2H-indazol-2-yl)-2-((R)-6-fluoro-6,7-dihydro-5H-pyrrolo[1,2-c]imidazol-1-yl)-N-(thiazol-2-yl)acetamide] showed an IC50 of 15 nM.
`CCN1CCN(c2ccc(-c3cc(C)c4cn(C(C(=O)Nc5nccs5)c5ncn6c5C[C@@H](F)C6)nc4c3C)cc2)CC1` (stereo partly drawn) [Example 121, 2-(6-(4-(4-Ethylpiperazin-1-yl)phenyl)-4,7-dimethyl-2H-indazol-2-yl)-2-((R)-6-fluoro-6,7-dihydro-5H-pyrrolo[1,2-c]imidazol-1-yl)-N-(thiazol-2-yl)acetamide] displayed an IC50 of 8 nM.
`CCN(CC)CC1(c2ccc(-c3cc(C)c4cn(C(C(=O)Nc5nccs5)c5ncn6c5C[C@@H](F)C6)nc4c3C)cc2)CC1` (stereo partly drawn) [Example 122, 2-(6-(4-(1-((Diethylamino)methyl)cyclopropyl)phenyl)-4,7-dimethyl-2H-indazol-2-yl) ((R)-6-fluoro-6,7-dihydro-5H-pyrrolo[1,2-c]imidazol-1-yl)-N-(thiazol-2-yl)acetamide] showed a half-maximal inhibitory concentration (IC50) of 19 nM.
`CCN(C)CCc1ccc(-c2cc(C)c3cn(C(C(=O)Nc4nccs4)c4ncn5c4C[C@@H](F)C5)nc3c2C)cc1` (some centres unmarked) [Example 123] returned a concentration for half-maximal inhibition (IC50) of 15 nM.
Turning to `Cc1cc(-c2ccc(N3CCOCC3)nc2)c(C)c2nn(C(C(=O)Nc3nccs3)c3ncn4c3C[C@@H](F)C4)cc12` (stereo partly drawn) [Example 124, 2-(4,7-Dimethyl-6-(6-morpholinopyridin-3-yl)-2H-indazol-2-yl)-2-((R)-6-fluoro-6,7-dihydro-5H-pyrrolo[1,2-c]imidazol-1-yl)-N-(thiazol-2-yl)acetamide], the IC50 stood at 5 nM.
The figure for `CCc1c(-c2ccc(N3CCOCC3)cc2)cc(Cl)c2cn(C(C(=O)Nc3nccs3)c3ncn4c3C[C@@H](F)C4)nc12` (stereo partly drawn) [Example 125, 2-(4-Chloro-7-ethyl-6-(4-morpholinophenyl)-2H-indazol-2-yl)-2-((R)-6-fluoro-6,7-dihydro-5H-pyrrolo[1,2-c]imidazol-1-yl)-N-(thiazol-2-yl)acetamide] is 11 nM.
In turn, `Cc1cc(-c2ccc(N3CCOCC3)cc2)c(Cl)c2nn(C(C(=O)Nc3nccs3)c3ncn4c3CCC4)cc12` (centres unmarked) [Example 126, 2-(7-Chloro-4-methyl-6-(4-morpholinophenyl)-2H-indazol-2-yl)-2-(6,7-dihydro-5H-pyrrolo[1,2-c]imidazol-1-yl)-N-(thiazol-2-yl)acetamide] had a 50% inhibitory concentration (IC50) of 9 nM.
On to `Cc1cc(-c2ccc(N3CCOCC3)cc2)c(Cl)c2nn(C(C(=O)Nc3nccs3)c3ncn4c3C[C@@H](F)C4)cc12` (stereo partly drawn) [Example 128, 2-(7-Chloro-4-methyl-6-(4-morpholinophenyl)-2H-indazol-2-yl)-2-((R)-6-fluoro-6,7-dihydro-5H-pyrrolo[1,2-c]imidazol-1-yl)-N-(thiazol-2-yl)acetamide], for which the IC50 was 5 nM.
For `COCCN1CCC(c2ccc(-c3cc(C)c4cn(C(C(=O)Nc5nccs5)c5ncn6c5C[C@@H](F)C6)nc4c3Cl)cc2)CC1` (stereo partly drawn) [Example 130, 2-(7-Chloro-6-(4-(1-(2-methoxyethyl)piperidin-4-yl)phenyl)-4-methyl-2H-indazol-2-yl)-2-((R)-6-fluoro-6,7-dihydro-5H-pyrrolo[1,2-c]imidazol-1-yl)-N-(thiazol-2-yl)acetamide], half-maximal inhibition (IC50) required 12 nM.
Take `O=C(Nc1nccs1)C(c1ncn2c1CCC2)n1cc2c(Cl)cc(-c3ccc(N4CCOCC4)cc3)c(Br)c2n1` (centres unmarked) [Example 134, 2-(7-Bromo-4-chloro-6-(4-morpholinophenyl)-2H-indazol-2-yl)-2-(6,7-dihydro-5H-pyrrolo[1,2-c]imidazol-1-yl)-N-(thiazol-2-yl)acetamide]: it took 32 nM to reach half-maximal inhibition (IC50).

Values taken from patent publication US12479849B2, “EGFR inhibitors for the treatment of cancer” (Hoffmann-La Roche Inc., priority 2019, dated 2025).
